This is an account of results in patent publication US11344510B2, “Arylcyclohexylamine derivatives and their use in the treatment of psychiatric disorders” (Gilgamesh Pharmaceuticals, Inc., priority 2019, dated 2022).

Series [1] can be described thus: MLM stability (Low Activity). Format: in vitro ADME, CD-1 mice. The settings on record: male, CD-1, mouse, liver microsomes, pH 7.4, Condition 1 (Low Activity), 0.50 mg protein/mL. Put shortly:
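Pooled male CD-1 mouse liver microsomes (0.50 mg/mL) with 1 μM compound and 1 mM NADPH in 100 mM PBS pH 7.4 with 1 mM MgCl2, 37 °C, six time points over 60 min. Parent remaining by LC-MS/MS; kel, t1/2 and Clint from linear regression of ln(AUC) versus time.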
Background: Liver microsomes are a subcellular fraction often used to study metabolism.

The target of series [2] is T1, DAT (Homo sapiens, UniProt Q01959).
T1 construct: expressed in transfected cells; host or cells: CHO (uptake)
T1 sequence (Q01959 whole entry, species assumed): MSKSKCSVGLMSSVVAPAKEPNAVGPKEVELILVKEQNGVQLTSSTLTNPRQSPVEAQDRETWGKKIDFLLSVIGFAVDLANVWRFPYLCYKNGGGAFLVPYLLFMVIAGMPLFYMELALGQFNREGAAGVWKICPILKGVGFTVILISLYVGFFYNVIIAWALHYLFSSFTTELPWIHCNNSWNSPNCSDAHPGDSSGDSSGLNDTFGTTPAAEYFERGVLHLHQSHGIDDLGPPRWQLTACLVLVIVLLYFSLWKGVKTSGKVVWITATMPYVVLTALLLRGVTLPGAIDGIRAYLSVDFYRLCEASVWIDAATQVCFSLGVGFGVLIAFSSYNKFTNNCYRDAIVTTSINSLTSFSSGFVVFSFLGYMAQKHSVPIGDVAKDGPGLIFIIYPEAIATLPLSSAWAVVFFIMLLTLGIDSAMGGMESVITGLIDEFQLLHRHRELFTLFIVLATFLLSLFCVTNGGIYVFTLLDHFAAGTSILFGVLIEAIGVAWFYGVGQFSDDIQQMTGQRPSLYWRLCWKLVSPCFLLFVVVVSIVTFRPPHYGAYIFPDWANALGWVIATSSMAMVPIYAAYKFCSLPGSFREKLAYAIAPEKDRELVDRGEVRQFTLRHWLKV
The series is described as follows: DAT radioligand binding with [3H]WIN35,428. The procedure: (§1) Radioligand Binding. Affinity of the test compounds for SERT, NET, and DAT was determined in radioligand binding experiments with [^3H]imipramine, [^3]nisoxetine, and [^3H]WIN35,428, respectively, by WuXi AppTec (Hong Kong) Limited, under the conditions described in Table 15.

Series [3] concerns the target T2, SERT (Homo sapiens, UniProt P31645).
T2 construct: expressed in transfected cells; host or cells: HEK293
The series can be described thus: SERT radioligand binding with [3H]imipramine. How it is done: as §1

Series [4] deals with T3, NET (Homo sapiens, UniProt P23975).
T3 construct: expressed in transfected cells; host or cells: HEK293
T3 sequence (P23975 whole entry, species assumed): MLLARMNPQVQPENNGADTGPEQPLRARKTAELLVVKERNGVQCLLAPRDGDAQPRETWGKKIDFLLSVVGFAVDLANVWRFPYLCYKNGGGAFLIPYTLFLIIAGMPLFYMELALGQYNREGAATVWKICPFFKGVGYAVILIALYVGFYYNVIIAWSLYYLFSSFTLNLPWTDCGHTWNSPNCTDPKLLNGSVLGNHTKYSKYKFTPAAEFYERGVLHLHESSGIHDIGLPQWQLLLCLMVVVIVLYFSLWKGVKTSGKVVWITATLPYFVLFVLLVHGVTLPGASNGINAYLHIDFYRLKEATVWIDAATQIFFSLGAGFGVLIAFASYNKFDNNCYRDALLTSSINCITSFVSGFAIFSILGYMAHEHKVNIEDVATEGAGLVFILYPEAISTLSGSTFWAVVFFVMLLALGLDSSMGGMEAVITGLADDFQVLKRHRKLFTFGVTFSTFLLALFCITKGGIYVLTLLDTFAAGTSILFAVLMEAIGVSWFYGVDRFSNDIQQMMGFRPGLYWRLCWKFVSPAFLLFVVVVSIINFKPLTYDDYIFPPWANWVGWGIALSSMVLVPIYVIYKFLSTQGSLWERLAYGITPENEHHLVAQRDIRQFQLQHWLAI
The series can be described thus: NET radioligand binding with [3H]nisoxetine. How it is done: as §1

A short description of series [5]: Oral bioavailability in mice, Method A. Format: in vivo. The note with it: CD-1 mice; for F: 10 mg/kg; for half-life / Cmax / AUC(0-inf): male, mouse. How it is done:
Animals. Male CD-1 mice were used in these studies Animals were randomly assigned to treatment groups and were fasted for 4 h before dosing.
Drugs. Test compounds were dissolved in normal saline (ketamine) or de-ionized water (other compounds) and administered intravenously (iv) or orally (po) at a dose of 10 mg/kg (calculated based on freebase) and at a volume of 5 mL/kg body weight. Compounds were tested as the racemates (indicated by “rac” nomenclature) or pure enantiomers (indicated by “R” or “S” nomenclature).
Sample Collection and Bioanalysis. Blood samples were collected under 2,2,2-tribromoethanol anesthesia (150 mg/kg, ip) from the orbital sinus at 0.083, 0.25, 0.5, 1, 2, 4, 8 and 24 h (4 animals per time point) into microcontainers containing K2EDTA Immediately after collection of blood, mice were euthanized by cervical dislocation and brain samples were collected at the same time points. All samples were immediately processed, flash-frozen, and stored at −70° C. until subsequent analysis. Plasma samples were separated by centrifugation of whole blood and aliquots (50 μL) were mixed with 200 μL of internal standard solution (400 ng/mL in 1:1 v/v CH3CN:MeOH). After mixing by pipetting and centrifuging for 4 min at 6000 rpm, 0.5 μL of each supernatant was analyzed for drug using a fit-for-purpose liquid chromatography-tandem mass spectrometry (LC-MS/MS) method, with authentic samples of each analyte used for calibration and identification. Brain samples (weight 100 mg±1 mg) were dispersed in 500 μL, of internal standard solution (400 ng/mL in 4:1 v/v MeOH:water) using zirconium oxide beads (115 mg±5 mg) in The Bullet Blender® homogenizer for 30 s at speed 8. After homogenization, the samples were centrifuged for 4 min at 14,000 rpm and 0.5 μL of each supernatant was analyzed for drug using a fit-for-purpose LC-MS/MS method, with authentic samples of each analyte used for calibration and identification.
Data Analysis. The drug concentrations of samples below the lower limit of quantitation (LLOQ) were designated as zero. Pharmacokinetic data analysis was performed using noncompartmental, bolus injection or extravascular input analysis models in WinNonlin 5.2 (PharSight). Data points below LLOQ were presented as missing to improve validity of t112 calculations.

Where [6] appears, read: calculated based on brain exposure.
The mark [7] stands for this setting: plasma, absolute oral bioavailability.
[8] abbreviates: brain, 10 mg/kg iv, read-out: t1/2 (iv).
The mark [9] stands for this setting: brain, 10 mg/kg po, read-out: t1/2 (po).
The mark [10] stands for this setting: plasma, 10 mg/kg iv, read-out: AUC0-inf (iv) (converted).
Where [11] appears, read: plasma, 10 mg/kg iv, read-out: t1/2 (iv).
[12] abbreviates: plasma, 10 mg/kg po, read-out: AUC0-inf (po) (converted).
The mark [13] stands for this setting: plasma, 10 mg/kg po, read-out: t1/2 (po).

Structures can show the parent of a compound that is named as a salt. Where two headings read alike, the source gives them in different places.

T2 sequence (P31645 whole entry, species assumed): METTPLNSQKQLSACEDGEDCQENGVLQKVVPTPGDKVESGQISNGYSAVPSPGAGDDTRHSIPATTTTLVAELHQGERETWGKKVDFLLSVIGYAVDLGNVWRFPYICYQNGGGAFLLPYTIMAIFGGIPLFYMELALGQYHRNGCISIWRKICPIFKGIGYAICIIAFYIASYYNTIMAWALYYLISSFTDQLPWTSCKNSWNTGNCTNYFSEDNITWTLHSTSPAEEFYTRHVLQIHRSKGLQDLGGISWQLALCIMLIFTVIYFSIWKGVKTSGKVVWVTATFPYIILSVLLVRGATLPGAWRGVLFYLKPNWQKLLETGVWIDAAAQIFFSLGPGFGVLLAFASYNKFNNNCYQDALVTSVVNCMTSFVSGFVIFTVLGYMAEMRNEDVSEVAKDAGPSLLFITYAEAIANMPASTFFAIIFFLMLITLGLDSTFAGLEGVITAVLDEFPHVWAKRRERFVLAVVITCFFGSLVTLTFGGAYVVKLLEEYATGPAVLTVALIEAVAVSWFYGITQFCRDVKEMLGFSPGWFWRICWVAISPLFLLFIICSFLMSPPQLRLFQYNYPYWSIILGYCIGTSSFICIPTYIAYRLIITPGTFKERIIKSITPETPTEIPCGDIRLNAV

In the case of `Cc1ccccc1[C@]1(N)CCCCC1=O` [Compound 114R, (R)-2-amino-2-(o-tolyl)cyclohexan-1-one], in series [1], the half-life at 1 μM came to 0.728 h and the intrinsic metabolic clearance (microsomal CLint) at 1 μM is 31.7 µL/min/mg.
`O=C1CCCC[C@@]1(c1ccccc1)N1CCC1` [Compound 84S, (S)-2-(azetidin-1-yl)-2-phenyl-cyclohexan-1-one]: the inhibition constant (Ki) amounted to 91.4 µM in series [2], 0.72 µM in series [3] and 53.8 µM in series [4].
The like results for `O=C1CCCCC1(c1ccccc1)N1CCCC1` (racemic) [Compound 27rac, 2-phenyl-2-(pyrrolidin-1-yl)cyclohexan-1-one] were, in that order, 55.1 µM, 0.11 µM and 11.5 µM.
Turning to `CNC1(c2ccccc2Cl)CCCCC1=O` (racemic) [rac-ketamine, racemic ketamine, reference compound], in series [5] (brain, 10 mg/kg iv), the “AUC0-inf (iv)” value is on record as 97,000 ng*min/g. Besides, in series [5] (brain, 10 mg/kg po), the “AUC0-inf (po)” value is given as 6,030 ng*min/g. In addition, the F in series [5] (setting [6]) is on record as 6.2%; in series [5] (setting [7]) it was 15%.
Regarding `O=C1CCCC[C@]1(c1ccccc1)N1CCC1` [Compound 84R, (R)-2-(azetidin-1-yl)-2-phenyl-cyclohexan-1-one], the inhibitory constant (Ki) was greater than 94.7 µM in series [2], 0.6 µM in series [3] and 77.8 µM in series [4].
In series [1], `N[C@]1(c2ccccc2)CCCCC1=O` [Compound 11S, (S)-2-amino-2-phenyl-cyclohexan-1-one] displayed a half-life at 1 μM greater than 2.42 h and an intrinsic metabolic clearance (microsomal CLint) at 1 μM of less than 9.6 µL/min/mg.
In the case of `CN[C@@]1(c2ccccc2)CCCCC1=O` [Compound 14R, (R)-2-(methylamino)-2-phenylcyclohexan-1-one], the “AUC0-inf (iv)” value in series [5] (brain, 10 mg/kg iv) is listed as 548,000 ng*min/g. In series [5] (brain, 10 mg/kg po), the “AUC0-inf (po)” value is 192,000 ng*min/g. The F in series [5] (setting [6]) is listed as 35%; in series [5] (setting [7]) it was 40%. Besides, the half-life was 11.9 h in series [5] (setting [8]), 0.735 h in series [5] (setting [9]), 1.18 h in series [5] (setting [11]) and 0.922 h in series [5] (setting [13]). The Cmax in series [5] (brain, 10 mg/kg po) was found to be 3640 ng/g; in series [5] (plasma, 10 mg/kg po), 1700 ng/mL. Besides, the AUC(0-inf) in series [5] (setting [10]) was 3520 ng·h/mL; in series [5] (setting [12]), 1410 ng·h/mL. Also, the Ki in series [3] came to 40 µM.
For the molecule `CNC1(c2ccccc2)CCCCC1=O` (racemic) [Compound 14rac, 2-(methylamino)-2-phenylcyclohexan-1-one hydrochloride], the “AUC0-inf (iv)” value in series [5] (brain, 10 mg/kg iv) is on record as 457,000 ng*min/g. Further, the “AUC0-inf (po)” value in series [5] (brain, 10 mg/kg po) was 192,000 ng*min/g. The F was 42% in series [5] (setting [6]) and 48% in series [5] (setting [7]). Further, the half-life in series [5] (setting [8]) turned out to be 0.468 h; in series [5] (setting [9]) it was 0.657 h; in series [5] (setting [11]) it was 0.562 h; in series [5] (setting [13]) it was 0.705 h. Further, the Cmax in series [5] (brain, 10 mg/kg po) is 3150 ng/g; in series [5] (plasma, 10 mg/kg po), 930 ng/mL. Also, the AUC(0-inf) in series [5] (setting [10]) is 1930 ng·h/mL; in series [5] (setting [12]) it was 920 ng·h/mL.
For `Cc1ccccc1[C@@]1(N)CCCCC1=O` [Compound 114S, (S)-2-amino-2-(o-tolyl)cyclohexan-1-one], in series [1], the half-life at 1 μM stood at 1.35 h and the microsomal CLint at 1 μM came to 17.1 µL/min/mg.
For the molecule `CN[C@]1(c2ccccc2)CCCCC1=O` [Compound 14S, (S)-2-(methylamino)-2-phenylcyclohexan-1-one], in series [5] (brain, 10 mg/kg iv), the “AUC0-inf (iv)” value is on record as 507,000 ng*min/g. In series [5] (brain, 10 mg/kg po), the “AUC0-inf (po)” value is on record as 166,000 ng*min/g. In addition, the F is 33% in series [5] (setting [6]) and 45.5% in series [5] (setting [7]). The half-life in series [5] (setting [8]) was 2.12 h; in series [5] (setting [9]) it was 1.73 h; in series [5] (setting [11]), 2.37 h; in series [5] (setting [13]) it was 2.93 h. In addition, the maximum concentration (Cmax) came out at 3480 ng/g in series [5] (brain, 10 mg/kg po) and 951 ng/mL in series [5] (plasma, 10 mg/kg po). Further, the values for the AUC(0-inf) in series [5] (setting [10]) and in series [5] (setting [12]) were 2180 ng·h/mL and 993 ng·h/mL, respectively. The molecule further yielded a Ki in series [3] of 45.1 µM.
In series [1], `N[C@@]1(c2ccccc2)CCCCC1=O` [Compound 11R, (R)-2-amino-2-phenyl-cyclohexan-1-one] had a half-life at 1 μM greater than 2.42 h and a microsomal CLint at 1 μM of less than 9.6 µL/min/mg.

One may read the microsomal CLint as a measure of how fast metabolising enzymes remove a compound, apart from limits set by blood flow. Broadly, the Ki is the equilibrium dissociation constant of an inhibitor or competing ligand from its target. In general, Cmax refers to the peak of the concentration-time curve.
